Reference: US4795826A, “Ortho-phenylenediamine compounds” (priority 1986, dated 1989)
Entries after “also recorded” stand apart in the source; their conditions may differ.

How the values were obtained:
P388 leukemia = P388 leukemia in vivo (increase in lifespan of mice, i.p. tumour); details: for ILSmax (percentage increase in lifespan), marked * / ILSmax (percentage increase in lifespan): P388, at OD on days 1, 5, 9, >20% statistically significant; for active (P388): P388, at the stated dose; for ILSmax (percentage increase in lifespan): values without asterisk, controls 11 days
Lewis lung carcinoma = Lewis lung carcinoma in vivo (increase in lifespan of mice, i.v. tumour); details: for ILS (percentage increase in lifespan) / ILS (percentage increase in lifespan), marked *: at OD on days 1, 5, 9, >40% statistically significant; for ILS (percentage increase in lifespan): values without asterisk, controls 17 days; for active (Lewis lung): at the stated dose
[1] = Potency and antitumour activity in in vivo test systems (general statements)
mouse L1210 leukemia = mouse L1210 leukemia model; Atwell, Cain and Seelye 1972; cited from earlier work
Aerobacter aerogenes = assay: Antibacterial activity
Alcaligenes viscolactis = assay: Antibacterial activity
Escherichia coli = assay: Antibacterial activity
Bacillus subtilis = assay: Antibacterial activity
Sarcina lutea = assay: Antibacterial activity
[2] = tested on: Micrococcus lysodeikticus; assay: Antibacterial activity
Neisseria catarrhalis = assay: Antibacterial activity
Staphylococcus aureus = assay: Antibacterial activity
Xanthomonas phaseoli = assay: Antibacterial activity
Streptococcus faecalis = assay: Antibacterial activity
[3] = 3'-substituted AMSA analogues; earlier publications; cited from earlier work

Row | SMILES | ILSmax (percentage increase in lifespan), marked * (P388 leukemia) | active (P388) (P388 leukemia) | ILS (percentage increase in lifespan) (Lewis lung carcinoma; Lewis lung) | active (Lewis lung) (Lewis lung carcinoma; Lewis lung) | ILSmax (percentage increase in lifespan) (P388 leukemia) | ILS (percentage increase in lifespan), marked * (Lewis lung carcinoma; Lewis lung) | other results
1 | CNc1cc(NS(C)(=O)=O)ccc1Nc1c2ccc(Cl)cc2nc2c(C)cccc12 [Compound 19] | 128% | Y | 126% | Y | – | – | –
2 | CNc1cc(NS(C)(=O)=O)ccc1Nc1c2ccccc2nc2ccccc12 [Compound 1] | – | Y | 85% | Y | – | – | potency and antitumour activity (in words) [1]: increased potency and antitumour activity compared to the unsubstituted AMSA and the 3'-methoxy derivative m-AMSA (amsacrine)
3 | CNc1cc(NC(=O)OC)ccc1Nc1c2ccccc2nc2ccccc12 [Compound 50] | – | Y | – | Y | 132% | 122% | –
4 | CS(=O)(=O)Nc1ccc(Nc2c3ccccc3nc3ccccc23)cc1 [AMSA, 4'-(9-acridinylamino) methanesulphonanilide] | – | – | – | – | – | – | antitumour activity (mouse L1210 leukemia): good antitumour activity
5 | CNc1cc(NC(=O)OC)ccc1Nc1c2ccc(Cl)cc2nc2c(C)cccc12 [Compound 56] | 151% | Y | 100% | Y | – | – | –
6 | CNc1cc(NC(=O)OC)ccc1Nc1c2ccccc2nc2c(C)cccc12 [Compound 58] | – | Y | – | Y | 114% | 48% | –
7 | CNc1cc(NS(C)(=O)=O)ccc1Nc1c2ccccc2nc2c(C)cccc12 [Compound 12] | 157% | Y | – | Y | – | 159% | antibacterial activity (Aerobacter aerogenes): active; antibacterial activity (Alcaligenes viscolactis): active; antibacterial activity (Escherichia coli): active; antibacterial activity (Bacillus subtilis): active; antibacterial activity (Sarcina lutea): active; antibacterial activity [2]: active; antibacterial activity (Neisseria catarrhalis): active; antibacterial activity (Staphylococcus aureus): active; antibacterial activity (Xanthomonas phaseoli): active; antibacterial activity (Streptococcus faecalis): active
8 | CNc1cc(NS(C)(=O)=O)ccc1Nc1c2ccc(F)cc2nc2c(C)cccc12 [Compound 18] | 152% | Y | – | Y | – | 143% | –
9 | CNc1cc(NS(C)(=O)=O)ccc1Nc1c2ccccc2nc2c(OC)cccc12 [Compound 13] | 118% | Y | 153% | Y | – | – | –
10 | CNc1cc(NC(=O)OC)ccc1Nc1c2ccc(Br)cc2nc2c(C)cccc12 [Compound 57] | – | Y | – | Y | 97% | 82% | –
11 | CN(C)c1cc(NS(C)(=O)=O)ccc1Nc1c2ccccc2nc2ccccc12 [Compound 32] | 212% | Y | > 250% | Y | – | – | cured animals (Lewis lung carcinoma; Lewis lung, at OD): all cured
12 | COc1cc(NS(C)(=O)=O)ccc1Nc1c2ccccc2nc2ccccc12 [m-AMSA, 4'-(9-acridinylamino)methanesulphon-m-anisidide, reference compound] | – | Y | 38% | Y/N | 78% | – | antitumour activity / dose potency (in words) [3]: increased dose potency; Lewis lung activity (in words) (Lewis lung carcinoma; tumour implanted intravenously, ILS of 40% required for statistical significance): minimal activity; also recorded: strictly inactive
